Test results as given in US20260049072A1, “HETEROCYCLIC COMPOUND FOR INDUCING DEGRADATION OF MUTANT KRAS PROTEIN” (Astellas Pharma Inc., priority 2022, published 2026).
Where two headings read alike, the source gives them in different places.

Experiments:
RAS G12V = target: T1, RAS G12V (Homo sapiens, UniProt P01116, G12V); assay: RAS G12V degradation activity, Cell ELISA, PA-TU-8902; format: cell-based; conditions: PA-TU-8902 cells, 24 hours; for DC50: 100% = Example compound 17 at 1 μM, read-out: DC50 (RAS G12V 50% degradation value)
T1 construct: host or cells: PA-TU-8902 human pancreatic cancer cells
Method: Test Example 1-1: Evaluation of RAS G12V Degradation Activity on Human KRAS G12V Mutant-Positive Pancreatic Cancer Line PA-TU-8902
The RAS G12V degradation activities of subject compounds were evaluated by measuring the expression levels of RAS G12V by a Cell ELISA method.
PA-TU-8902 cells (DSMZ, ACC 179) were seeded at 36 μL per well on a 384-well plate (from Greiner bio-one) to give 1.5×10^4 cells per well. As for the cell culture conditions, DMEM medium (from Sigma-Aldrich) containing 10% fetal bovine serum (from Cytiva) was used in the presence of 5% CO2 at 37° C.
The next day, the subject compounds (10 points having final concentrations in the range of 3 μM to 0.1 nM), Example compound 17 of a final concentration of 1 μM as a positive control and dimethyl sulfoxide (DMSO), which was the solvent for the subject compounds, as a negative control were diluted 100-fold with a fresh medium and were each added at 4 μL per well, followed by culturing for 24 hours.
The next day, the culture supernatant was removed, and a 4% paraformaldehyde phosphate buffer solution (from FUJIFILM Wako) was added at 20 μL per well. The plate was allowed to stand for 30 minutes at room temperature to thus immobilize the cells. Then, the supernatant was removed, and 0.1% Triton X-100 (from Amersham Biosciences)-containing Phosphate buffered saline (PBS) was added at 20 μL per well. After allowing the plate to stand at room temperature for 10 minutes, the supernatant was removed, and the wells were washed twice in total by adding PBS at 25 μL per well and removing the supernatant. The washing operations below were performed in the same manner. Next, the supernatant was removed, and 0.5% sodium dodecyl sulfate (SDS; from ThermoFisher Scientific)-containing PBS was added at 20 μL per well. After allowing the plate to stand at room temperature for 10 minutes, the plate was centrifuged to remove the supernatant. After washing with PBS, the supernatant was removed by centrifugation, and a blocking solution (PVDF Blocking Reagent for Can Get Signal; from TOYOBO) was added at 20 μL per well. After allowing the plate to stand for 30 minutes at room temperature, the supernatant was removed by centrifugation, and a solution obtained by diluting an anti-Ras (G12V Mutant Specific) antibody (Ras (G12V Mutant Specific) (D2H12) Rabbit mAb; from Cell Signaling Technology; 500-fold dilution) and an anti-3-actin antibody (Anti-beta Actin antibody; from Abcam; 5,000-fold dilution) with Can Get Signal Solution 2 (from TOYOBO) was added at 15 μL per well as primary antibodies. The plate was allowed to stand overnight at 4° C.
The next day, the supernatant was removed by centrifugation, and the plate was washed with PBS. The supernatant was removed by centrifugation, and a solution obtained by diluting an anti-rabbit IgG antibody (IRDye 800CW Goat anti-Rabbit IgG; from LI-COR Biosciences) and an anti-mouse IgG antibody (IRDye 680RD Donkey anti-Mouse IgG; from LI-COR Biosciences) 1,000-fold with Can Get Signal Solution 2 was added at 15 μL per well as secondary antibodies. After allowing the plate to stand at room temperature for an hour, the supernatant was removed by centrifugation, and the plate was washed with PBS. After removing the supernatant, the plate was dried as it was with air at room temperature for two hours or more, and the 700-nm and 800-nm fluorescent signals were measured with Aerius (from LI-COR Biosciences).
With the RAS G12V signaling value at the time of addition of DMSO corrected with the signaling value of 3-actin taken as 0% and with the RAS G12V signaling value at the time of addition of Example compound 17 of a final concentration of 1 μM taken as 100%, the RAS G12V degradation rates were calculated. The 50% degradation values (DC50) were calculated by Sigmoid-Emax model nonlinear regression analysis.

PA-TU-8902 cells = assay: Non-anchorage-dependent cell growth inhibition (spheroid 3D culture), PA-TU-8902; format: cell-based, human; conditions: Homo sapiens, PaTu 8902, 144 h, read-out: PA-TU-8902 IC50
Method: (§1) Test Example 3: Evaluation of Non-Anchorage-Dependent Cell Growth Inhibitory Activity on Human KRAS G12V Mutant-Positive Pancreatic Cancer Line PA-TU-8902, Human KRAS G12D Mutant-Positive Pancreatic Cancer Line AsPC-1 or Human KRAS G12C Mutant-Positive Pancreatic Cancer Line MIA PaCa-2
(§2) The non-anchorage-dependent cell growth inhibitory activities of subject compounds were evaluated by spheroid 3D cell culture.
(§3) PA-TU-8902 cells, AsPC-1 cells or MIA PaCa-2 cells (RIKEN BRC, RCB2094) were seeded at 36 µL/well on a low-cell-adhesive round bottom 384-well plate (Prime Surface: from Sumitomo Bakelite) to give 5×10^2 cells per well. The PA-TU-8902 cells were under the same conditions as in Test Example 1-1, and the AsPC-1 cells were under the same conditions as in Test Example 1-2. For the MIA PaCa-2 cells, RPMI-1640 medium containing 10% fetal bovine serum was used in the presence of 5% CO2 at 37° C.
(§4) The next day, the subject compounds (6-9 points having final concentrations in the range of 3 μM to 0.3 nM) and DMSO, which was the solvent for the subject compounds, as a negative control were diluted 100-fold with a fresh medium and were each added at 4 μL per well. After culturing in the presence of 5% CO2 at 37° C. for six days, CellTiter-Glo 2.0 (from Promega) was added at 20 μL per well. After stirring with a plate mixer (from FINEPCR) at normal temperature for an hour, the luminescent signals were measured with ARVO X3 (from PerkinElmer).
(§5) With the signaling value in treatment with DMSO taken as 0% inhibition and with the signaling value in the medium alone without cells taken as 100% inhibition, the 50% inhibition values (IC50) were calculated by Sigmoid-Emax model nonlinear regression analysis.

AsPC-1 cells = assay: Non-anchorage-dependent cell growth inhibition (spheroid 3D culture), AsPC-1; format: cell-based; conditions: Homo sapiens, ASPC1, 144 h, read-out: AsPC-1 IC50
Method: as §1, §2, §3, §4, §5

MIA PaCa-2 cells = assay: Non-anchorage-dependent cell growth inhibition (spheroid 3D culture), MIA PaCa-2; format: cell-based; conditions: Homo sapiens, MIA PaCa-2, 144 h, read-out: MIA PaCa-2 IC50
Method: as §1, §2, §3, §4, §5

[1] = KRAS G12V mutant-positive, 3D spheroid, six days, CellTiter-Glo 2.0
[2] = KRAS G12D mutant-positive, 3D spheroid, six days, CellTiter-Glo 2.0
[3] = KRAS G12C mutant-positive, 3D spheroid, six days, CellTiter-Glo 2.0

T1 sequence (P01116 1-188 isoform P01116-2 G12V): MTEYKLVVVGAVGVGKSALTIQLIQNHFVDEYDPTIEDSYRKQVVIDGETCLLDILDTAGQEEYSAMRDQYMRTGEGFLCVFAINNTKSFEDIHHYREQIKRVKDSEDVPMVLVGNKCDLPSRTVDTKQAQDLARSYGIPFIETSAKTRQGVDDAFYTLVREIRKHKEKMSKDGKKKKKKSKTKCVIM

| Compound | DC50 (RAS G12V) [nM] | IC50 (PA-TU-8902 cells; [1]) [nM] | IC50 (AsPC-1 cells; [2]) [nM] | IC50 (MIA PaCa-2 cells; [3]) [nM] | IC50 (PA-TU-8902 cells) [nM] | IC50 (AsPC-1 cells) [nM] | IC50 (MIA PaCa-2 cells) [nM] | Dmax (RAS G12V; PaTu 8902, RAS G12V, read-out: Dmax (degradation rate at the concentration with highest degradation activity)) [%] |
| --- | --- | --- | --- | --- | --- | --- | --- | --- |
| Cc1ncsc1-c1ccc([C@H](CO)NC(=O)[C@@H]2C[C@@H](O)CN2C(=O)[C@H](C(C)C)n2cc(-c3ccc(COc4c(-c5c(C)c(F)cc6[nH]ncc56)c(C5CC5)cc5c(N6CC[C@H]6C(N)=O)nc(OC6CCOCC6)nc45)cc3)nn2)cc1 [Example 35] | 23 | 32 | 10 | 5 |  |  |  |  |
| CO[C@@H](C)COc1nc(OC2CN(C(=O)NCCN(C)C)C2)c2cc(C3CC3)c(-c3c(C)c(F)cc4[nH]ncc34)c(OCc3ccc(C(=O)N[C@H](C(=O)N4C[C@H](O)C[C@H]4C(=O)N[C@@H](CO)c4ccc(-c5scnc5C)cc4)C(C)C)cc3)c2n1 [Example 40, N-{4-[({(7M)-6-cyclopropyl-4-[(1-{[2-(dimethylamino)ethyl]carbamoyl}azetidin-3-yl)oxy]-7-(6-fluoro-5-methyl-1H-indazol-4-yl)-2-[(2S)-2-methoxypropoxy]quinazolin-8-yl}oxy)methyl]benzoyl}-L-valyl-(4R)-4-hydroxy-N-{(1R)-2-hydroxy-1-[4-(4-methyl-1,3-thiazol-5-yl)phenyl]ethyl}-L-prolinamide] | 76 |  |  |  | 100 | 62 | 20 |  |
| CO[C@@H](C)COc1nc(N[C@H]2C[C@H](OCCN(C)C)C2)c2cc(C3CC3)c(-c3c(C)c(F)cc4[nH]ncc34)c(OCc3ccc(-c4cn([C@H](C(=O)N5C[C@H](O)C[C@H]5C(=O)N[C@@H](CO)c5ccc(-c6scnc6C)cc5)C(C)C)nn4)cc3)c2n1 (atropisomer, axis not shown) [Example 23] | 112 | 182 | 9 | 17 |  |  |  | 62 |
| CO[C@@H](C)COc1nc(NC2CN(C(=S)N3CC(CN(C)C)C3)C2)c2cc(C3CC3)c(-c3c(C)c(F)cc4[nH]ncc34)c(OCc3ccc(-c4cn([C@H](C(=O)N5C[C@H](O)C[C@H]5C(=O)N[C@@H](CO)c5ccc(-n6cncn6)cc5)C(C)C)nn4)cc3)c2n1 (atropisomer, axis not shown) [Example 26] | 19 | 41 | 15 | 7 |  |  |  |  |
| CNCCNC(=O)N1CC(Oc2nc(OC[C@H](C)OC)nc3c(OCc4ccc(-c5cn([C@H](C(=O)N6C[C@H](O)C[C@H]6C(=O)N[C@@H](CO)c6ccc(-c7scnc7C)cc6)C(C)C)nn5)cc4)c(-c4c(C)c(F)cc5[nH]ncc45)c(C4CC4)cc23)C1 (atropisomer, axis not shown) [Example 18] | 69 | 69 | 32 | 26 |  |  |  |  |
| CO[C@@H](C)COc1nc(NC2CN(C(=O)O[C@H]3C[C@@H](N(C)C)C3)C2)c2cc(C3CC3)c(-c3c(C)c(F)cc4[nH]ncc34)c(OCc3ccc(-c4cn([C@H](C(=O)N5C[C@H](O)C[C@H]5C(=O)N[C@@H](CO)c5ccc(-n6cncn6)cc5)C(C)C)nn4)cc3)c2n1 (atropisomer, axis not shown; (M)) [Example 2, (1s,3R)-3-(dimethylamino)cyclobutyl 3-({(7M)-6-cyclopropyl-7-(6-fluoro-5-methyl-1H-indazol-4-yl)-8-{[4-(1-{(2S)-1-[(2S,4R)-4-hydroxy-2({(1R)-2-hydroxy-1-[4-(1H-1,2,4-triazol-1-yl)phenyl]ethyl}carbamoyl)pyrrolidin-1-yl]-3-methyl-1-oxobutan-2-yl}-1H-1,2,3-triazol-4-yl)phenyl]methoxy}-2-[(2S)-2-methoxypropoxy]quinazolin-4-yl}amino)azetidine-1-carboxylate] | 18 | 33 | 11 | 12 |  |  |  |  |
| COC(C)(C)COc1cc(OC2CN(C(=O)N3CC(CN(C)C)C3)C2)c2cc(C3CC3)c(-c3c(C)c(F)cc4[nH]ncc34)c(OCc3ccc(-c4cn([C@H](C(=O)N5C[C@H](O)C[C@H]5C(=O)N[C@@H](CO)c5ccc(-n6cncn6)cc5)C(C)C)nn4)cc3)c2n1 (atropisomer, axis not shown) [Example 9] | 21 | 53 | 19 | 9 |  |  |  |  |
| CO[C@@H](C)COc1cc(OC2CN(C(=O)CCCN(C)C)C2)c2cc(C3CC3)c(-c3c(C)c(F)cc4[nH]ncc34)c(OCc3ccc(-c4cn([C@H](C(=O)N5C[C@H](O)C[C@H]5C(=O)N[C@@H](CO)c5ccc(-n6cncn6)cc5)C(C)C)nn4)cc3)c2n1 (atropisomer, axis not shown; (M)) [Example 41, (4R)-1-[(2S)-2-(4-{4-[({(7M)-6-cyclopropyl-4-({1-[4-(dimethylamino)butanoyl]azetidin-3-yl}oxy)-7-(6-fluoro-5-methyl-1H-indazol-4-yl)-2-[(2S)-2-methoxypropoxy]quinolin-8-yl}oxy)methyl]phenyl}-1H-1,2,3-triazol-1-yl)-3-methylbutanoyl]-4-hydroxy-N-{(1R)-2-hydroxy-1-[4-(1H-1,2,4-triazol-1-yl)phenyl]ethyl}-L-prolinamide] | 30 | 52 | 29 | 23 |  |  |  |  |
